Data from patent US20120178147A1, “MICROBIAL CULTURES AND METHODS FOR ANAEROBIC BIOREMEDIATION” (priority 2009, published 2012).
Like-named read-outs stand apart in the source and are kept apart here.

How the values were obtained:
[1] = test system: Gram-negative species and fungi; conditions: cited from earlier work
P. aeruginosa = conditions: cited from earlier work
general bacteria = assay: qRT-PCR of general bacteria 16S rRNA genes in BDI cultures; assay type: cell-based; conditions: BDI with 1.5 μM TCC or 35 μM TCS
Description: Quantitative real-time PCR (qRT-PCR) was performed for enumeration of general 16S rRNA genes and Dehalococcoides 16S rRNA genes in culture DehaloR̂2 and Bio-Dechlor INOCULUM. The primers used for general 16S rRNA genes were Bac1055F (5′-ATG GYT GTC GTC ACCT-3′) and Bac1392R (5′-ACG GGC GGT GTG TAC-3′) (Ritalahti et al., 2006), and the probe was Bac16sTaq (FAM-CAA CGA GCG CAA CCC/3-BHQ-1/). The final volume of PCR reactions was 10 μL, and the final concentration of each chemical in a single reaction tube was: 1× RealMasterMix (Fisher Scientific, Pittsburgh, Pa.), 300 nM Probe, 300 nM each Primer, and 130 nM DNA samples. The PCR conditions were as follows: 2 min at 95° C. followed by 40 cycles of 10 s at 95° C., 20 s at 56° C. and 20 s at 68° C. The primers used for Dehalococcoides 16S rRNA genes were Dhc1200F (5′-CTGGAGCTAATCCCCAAAGCT-3′) and Dhc1271R (5′-CAA CTT CAT GCA GGC GGG-3′), and the probe was Dhc1240Pr (FAM-TCCTCAGTTCGGATTGCAGGC TGAA/3-BHQ-1) (He et al., 2003b). The final volume of PCR reactions was 10 μL, and the final concentration of each chemical in a single reaction tube was: 1× RealMasterMix (Fisher Scientific, Pittsburgh, Pa.), 200 nM Probe, 700 nM each Primer, and 130 nM DNA samples. The PCR conditions were as follows: 2 min at 95° C. followed by 40 cycles of 15 s at 95° C., 20 s at 58° C. and 20 s at 68° C.
Quantitative Real time PCR (qRT-PCR) was carried out in a spectrofluorimetric thermal cycler (Master cycler, epgradient S, Eppendorf). Calibration curves were performed in triplicate and a linear range of 6 orders of magnitude was obtained. Plasmids containing Dehalococcoides strain BAV1 16S rRNA genes were used as standards to construct general 16S rRNA genes and Dehalococcoides 16S rRNA genes calibration curves. The slopes of the calibration curves for general 16S rRNA genes and Dehalococcoides 16S rRNA genes were −3.46 and −3.94, and the Y intercepts were 38 and 44.2, respectively.
DNA Extraction and Quantitative Real-Time PCR. The BDI cultures and DehaloR^2 cultures were shaken vigorously first and then 10 ml of the mixed liquid was removed with a sterile syringe and dispensed into 10 1.5 ml micro centrifuge tubes. These micro centrifuge tubes were then centrifuged at 13,000 rpm for 15 min in order to make a pellet, and the pellet was used for DNA extraction. Qiagen DNeasy Blood & Tissue Kit with modifications to enhance lysis was used for DNA isolation from cultures. DNA samples were stored at −20° C.
Quantitative real-time PCR (qRT-PCR) was performed for enumeration of general 16S rRNA genes and Dehalococcoides 16S rRNA genes in BDI culture without TCC&TCS, BDI culture with 1.5 μM TCC, BDI culture with 35 μM TCS, D DehaloR̂2 culture without TCC&TCS, DehaloR^2 culture with 1.5 μM TCC and DehaloR̂2^2 culture with 35 μM TCS. […]

MRSA = conditions: cited from earlier work
E. coli = conditions: cited from earlier work
aquatic organisms = conditions: according to PBT Profiler; cited from earlier work
[2] = cited from earlier work
[3] = test system: algae, aquatic invertebrates and fish; conditions: cited from earlier work
[4] = test system: Gram-positive bacteria, such as staphylococcus; conditions: cited from earlier work
North American bullfrog = conditions: alters thyroid hormone-mediated postembryonic development; cited from earlier work
Rainbow trout = conditions: in vivo; cited from earlier work
Scenedesmus subspicatus = conditions: cited from earlier work
[5] = continuous-flow activated sludge, 0.5 to 2 mg/L TCS (Stasinakis et al., 2007); cited from earlier work

O=C(Nc1ccc(Cl)cc1)Nc1ccc(Cl)c(Cl)c1 [TCC, 3-(4-chlorophenyl)-1-(3,4-dichlorphenyl) urea]
concentration needed to inhibit Gram-negative species and fungi [1]: 1000 mg/L
activity in MIC experiments (P. aeruginosa): not
General bacteria 16S rRNA gene copies, day 27 (general bacteria): 1.4×10^8 gene copies/ml
General bacteria 16S rRNA gene copies, initial (general bacteria): 7.2×10^7 gene copies/ml
activity in MIC experiments (MRSA): showed activity
activity in MIC experiments (E. coli): not
concentration toxic to aquatic organisms (aquatic organisms): 90000 ng/mL
biodegradation ([2]; TCC 20 μg/L): 60%
biodegradation ([2]; TCC 2000 μg/L): 70%
biodegradation of the dichloroaniline ring ([2]; bench scale CFAS system): 25.9%
biodegradation of the p-chloroaniline ring ([2]; bench scale CFAS system): 56%
Predicted No Effect Concentration (PNEC) [3]: 0.146 µg/L
ratio of PEC/PNEC [3]: 0.009 to 0.34
concentration that effectively inhibits Gram-positive bacteria [4]: 100 to 200 µg/L

Oc1cc(Cl)ccc1Oc1ccc(Cl)cc1Cl [TCS, 5-chloro-2-[2,4-dichloro-phenoxy]-phenol]
concentration acting as an endocrine disruptor (North American bullfrog): 0.15 ± 0.03 ng/mL
NOEC (Rainbow trout): 34 µg/L
median EC50 (Rainbow trout): 0.35 µg/mL
General bacteria 16S rRNA gene copies, day 27 (general bacteria): 3.3×10^8 gene copies/ml
General bacteria 16S rRNA gene copies, initial (general bacteria): 1.0×10^8 gene copies/ml
96-h effective concentration (EC50) for growth (Scenedesmus subspicatus): 0.0014 µg/mL
96-h no-observed effect concentration (NOEC) (Scenedesmus subspicatus): 0.69 µg/L
removed by biodegradation and sorption [5]: 90%
